Measurements taken from patent publication US5817667A, “Compounds and methods for the treatment of cancer” (University of Georgia Research Foudation, priority 1994, dated 1998).

Legend:
UACC-257 = experiment: NCI cancer screening, growth inhibition (SRB); type: cell-based
K2112 = conditions: Colon Cancer; 48 hours exposure
A549/ATCC = experiment: NCI cancer screening, growth inhibition (SRB); type: cell-based; conditions: Non-Small Cell Lung Cancer, 48 hours exposure
OVCAR-3 = experiment: NCI cancer screening, growth inhibition (SRB); type: cell-based; conditions: Homo sapiens, OVCAR-3, 48 h, read-out: Log10 GI50 (converted)
M14 = experiment: NCI cancer screening, growth inhibition (SRB); type: cell-based; conditions: Melanoma, 48 hours exposure
SR = experiment: NCI cancer screening, growth inhibition (SRB); type: cell-based; conditions: Leukemia, 48 hours exposure
PC-3 = experiment: NCI cancer screening, growth inhibition (SRB); type: cell-based; conditions: Prostate Cancer, 48 hours exposure
OROV1 = experiment: NCI cancer screening, growth inhibition (SRB); type: cell-based; conditions: Ovarian Cancer; 48 hours exposure
Text: PG=100×(Mean ODtest -Mean ODtzero)/(Mean ODtzero)

CAKI-1 = experiment: NCI cancer screening, growth inhibition (SRB); type: cell-based; conditions: Renal Cancer, 48 hours exposure
NCI-H23 = experiment: NCI cancer screening, growth inhibition (SRB); type: cell-based; conditions: Non-Small Cell Lung Cancer, 48 hours exposure
COLO205 = experiment: NCI cancer screening, growth inhibition (SRB); type: cell-based; conditions: Homo sapiens, COLO 205, 48 h, read-out: Log10 GI50 (converted)
RL-60(TB) = experiment: NCI cancer screening, growth inhibition (SRB); type: cell-based; conditions: Leukemia, 48 hours exposure
HOP-62 = experiment: NCI cancer screening, growth inhibition (SRB); type: cell-based; conditions: Non-Small Cell Lung Cancer, 48 hours exposure
RPMI-2.26 = experiment: NCI cancer screening, growth inhibition (SRB); type: cell-based; conditions: 48 h, read-out: Log10 GI50 (converted)
MDA-MB-231/ATCC [1] = conditions: Breast Cancer; 48 hours exposure
SK-MEL-5 = experiment: NCI cancer screening, growth inhibition (SRB); type: cell-based; conditions: Melanoma, 48 hours exposure
RXF-393 = experiment: NCI cancer screening, growth inhibition (SRB); type: cell-based; conditions: Renal Cancer, 48 hours exposure
BT-549 = experiment: NCI cancer screening, growth inhibition (SRB); type: cell-based; conditions: Breast Cancer, 48 hours exposure
LOX D6VI = experiment: NCI cancer screening, growth inhibition (SRB); type: cell-based; conditions: Melanoma, 48 hours exposure
UO-31 = experiment: NCI cancer screening, growth inhibition (SRB); type: cell-based; conditions: Renal Cancer, 48 hours exposure
NCI-H322M [2] = conditions: Non-Small Cell Lung Cancer; 48 hours exposure
NCI-H522 = experiment: NCI cancer screening, growth inhibition (SRB); type: cell-based; conditions: Non-Small Cell Lung Cancer, 48 hours exposure
K-562 = experiment: NCI cancer screening, growth inhibition (SRB); type: cell-based; conditions: Leukemia, 48 hours exposure
SNB-19 = experiment: NCI cancer screening, growth inhibition (SRB); type: cell-based; conditions: CNS Cancer, 48 hours exposure
CCRF-CEM = experiment: NCI cancer screening, growth inhibition (SRB); type: cell-based; conditions: Leukemia, 48 hours exposure
UACC-62 = experiment: NCI cancer screening, growth inhibition (SRB); type: cell-based; conditions: Melanoma, 48 hours exposure
HCT-15 = experiment: NCI cancer screening, growth inhibition (SRB); type: cell-based; conditions: Colon Cancer, 48 hours exposure
OVCAR-5 = experiment: NCI cancer screening, growth inhibition (SRB); type: cell-based; conditions: Ovarian Cancer, 48 hours exposure
MDA-MB-231/ATCC [3] = experiment: cells; conditions: Homo sapiens, MDA-MB-231, 48 h, read-out: Log10 GI50 (converted)
MDA-N = experiment: NCI cancer screening, growth inhibition (SRB); type: cell-based; conditions: Breast Cancer, 48 hours exposure
NCI-H322M [4] = experiment: cells; conditions: Homo sapiens, 48 h, read-out: Log10 GI50 (converted)
OVCAR-8 = experiment: NCI cancer screening, growth inhibition (SRB); type: cell-based; conditions: Homo sapiens, OVCAR-8, 48 h, read-out: Log10 GI50 (converted)
[5] = read-out: Log10 GI50 (converted)

Which GI50 (UACC-257; Homo sapiens, UACC-257, 48 h, read-out: Log10 GI50 (converted)) does the source give for `Nc1ccn([C@@H]2CO[C@H](CO)O2)c(=O)n1` [(-)-OddC, (-)-(2S,4S)-1-(2-hydroxymethyl-1,3-dioxolan-4-yl)cytosine] here?
The GI50 was over 100 µM.

What about the “Log10 TGI” value (UACC-257; Melanoma, 48 hours exposure) of the same molecule?
The value was over -4.00.

What about the “Log10 TGI” value (K2112) of the same molecule?
The value was over -4.00.

What about the GI50 (A549/ATCC; Homo sapiens, A549, read-out: Log10 GI50 (converted)) of the same molecule?
Its GI50 is 0.977 µM.

What about the “Log10 TGI” value (A549/ATCC) of the same molecule?
Its value is over -4.00.

What about the GI50 (OVCAR-3) of the same molecule?
The GI50 was 36.3 µM.

And the GI50 (M14; Homo sapiens, M14, read-out: Log10 GI50 (converted))?
Its GI50 is 0.537 µM.

And the “Log10 TGI” value (M14)?
Its value is -5.07.

And the GI50 (SR; Homo sapiens, SR, read-out: Log10 GI50 (converted))?
The GI50 was 1.12 µM.

What about the “Log10 TGI” value (SR) of the same molecule?
The value was over -4.00.

What about the GI50 (PC-3; Homo sapiens, PC-3, read-out: Log10 GI50 (converted)) of the same molecule?
Its GI50 is 0.513 µM.

And the “Log10 TGI” value (PC-3)?
The value was over -4.00.

And the “Log10 TGI” value (OROV1)?
Its value is over -4.00.

What about the GI50 (CAKI-1; Homo sapiens, CAKI-1, read-out: Log10 GI50 (converted)) of the same molecule?
Its GI50 is 0.224 µM.

And the “Log10 TGI” value (CAKI-1)?
Its value is -4.87.

What about the GI50 (NCI-H23; Homo sapiens, NCI-H23, read-out: Log10 GI50 (converted)) of the same molecule?
The GI50 was 12 µM.

And the “Log10 TGI” value (NCI-H23)?
The value was over -4.00.

What about the GI50 (COLO205) of the same molecule?
Its GI50 is 93.3 µM.

And the “Log10 TGI” value (RL-60(TB))?
The value was over -4.00.

And the GI50 (RL-60(TB); [5])?
The GI50 was 0.525 µM.

And the GI50 (HOP-62; Homo sapiens, HOP-62, read-out: Log10 GI50 (converted))?
The GI50 was 0.589 µM.

What about the “Log10 TGI” value (HOP-62) of the same molecule?
The value was -4.71.

What about the GI50 (RPMI-2.26) of the same molecule?
The GI50 was 93.3 µM.

And the “Log10 TGI” value (MDA-MB-231/ATCC [1])?
Its value is over -4.00.

What about the GI50 (SK-MEL-5; Homo sapiens, SK-MEL-5, read-out: Log10 GI50 (converted)) of the same molecule?
The GI50 was 12.3 µM.

And the “Log10 TGI” value (SK-MEL-5)?
The value was over -4.00.

What about the GI50 (RXF-393; Homo sapiens, RXF 393, read-out: Log10 GI50 (converted)) of the same molecule?
Its GI50 is 0.676 µM.

And the “Log10 TGI” value (RXF-393)?
Its value is over -4.00.

What about the “Log10 TGI” value (BT-549) of the same molecule?
Its value is over -4.00.

And the GI50 (BT-549; Homo sapiens, BT-549, read-out: Log10 GI50 (converted))?
The GI50 was 25.7 µM.

What about the “Log10 TGI” value (LOX D6VI) of the same molecule?
The value was over -4.00.

What about the GI50 (LOX D6VI; [5]) of the same molecule?
The GI50 was 0.407 µM.

What about the GI50 (UO-31; Homo sapiens, UO-31, read-out: Log10 GI50 (converted)) of the same molecule?
The GI50 was 2.51 µM.

And the “Log10 TGI” value (UO-31)?
Its value is over -4.00.

And the “Log10 TGI” value (NCI-H322M [2])?
Its value is over -4.00.

What about the GI50 (NCI-H522; Homo sapiens, NCI-H522, read-out: Log10 GI50 (converted)) of the same molecule?
The GI50 was 0.871 µM.

And the “Log10 TGI” value (NCI-H522)?
The value was over -4.00.

And the GI50 (K-562; Homo sapiens, K562, read-out: Log10 GI50 (converted))?
Its GI50 is 25.7 µM.

What about the “Log10 TGI” value (K-562) of the same molecule?
Its value is over -4.00.

What about the “Log10 TGI” value (SNB-19) of the same molecule?
The value was over -4.00.

And the GI50 (SNB-19; Homo sapiens, SNB-19, read-out: Log10 GI50 (converted))?
The GI50 was 1.95 µM.

And the GI50 (CCRF-CEM; Homo sapiens, CCRF-CEM, read-out: Log10 GI50 (converted))?
The GI50 was 0.229 µM.

And the “Log10 TGI” value (CCRF-CEM)?
Its value is over -4.00.

And the GI50 (UACC-62; Homo sapiens, UACC-62, read-out: Log10 GI50 (converted))?
Its GI50 is 2.95 µM.

What about the “Log10 TGI” value (UACC-62) of the same molecule?
The value was over -4.00.

What about the “Log10 TGI” value (HCT-15) of the same molecule?
Its value is over -4.00.

And the GI50 (HCT-15; Homo sapiens, HCT-15, read-out: Log10 GI50 (converted))?
The GI50 was 4.07 µM.

And the GI50 (OVCAR-5; Homo sapiens, OVCAR-5, read-out: Log10 GI50 (converted))?
Its GI50 is 38.9 µM.

And the “Log10 TGI” value (OVCAR-5)?
The value was over -4.00.

And the GI50 (MDA-MB-231/ATCC [3])?
Its GI50 is over 100 µM.

What about the “Log10 TGI” value (MDA-N) of the same molecule?
The value was over -4.00.

And the GI50 (MDA-N; Homo sapiens, MDA-N, read-out: Log10 GI50 (converted))?
Its GI50 is 46.8 µM.

And the GI50 (NCI-H322M [4])?
Its GI50 is over 100 µM.

What about the GI50 (OVCAR-8) of the same molecule?
The GI50 was 1.51 µM.
